Source: paper PMC11219871, “Epigenetic-based differentiation therapy for Acute Myeloid Leukemia” (Nature Communications, 2024)
“And” between values parts separate entries of the source, which are not always exact repeats. Equal values may be shown once. Read-outs that look alike come from different tables or passages of the source.

Key:
[1] = Cryopreserved hepatocyte stability; format: in vitro ADME; settings: read-out: Liver Hepatocytes Estimation T1/2
Procedure: This study was conducted at Wuxi (http://www.wuxi.com/). […] Stock solutions of test compound (10 mM; 100% DMSO) and positive controls (7-ethoxycoumarin and 7-hydroxycoumarin; 30 mM; 100% DMSO) were diluted to 1 mM and 3 mM with DMSO and then diluted to 100 μM and 300 μM with acetonitrile (dosing solutions). Cryopreserved cells (from Human Donors, Bioreclamation IVT, Cat No. X008001 and from male C57 Mice, Bioreclamation IVT, Cat No. S00463) were thawed, isolated and suspended in Williams’ Medium E, then diluted with pre-warmed Williams’ Medium E to 0.5 × 10^6 cells/mL. Cell viability was tested by trypan blue exclusion after thawing. A volume of 2 μL of dosing solution and 198 μL of pre-warmed cell suspensions were added to a 96-well plate and incubated at 37 °C (5% CO2) with constant shaking at 600 rpm. Following different incubation times (0, 15, 30, 60 and 90 min), 20 μL of each sample was transferred to a well containing 80 μL of ice-cold stop solution (acetonitrile containing 200 ng/mL tolbutamide and 200 ng/mL labetalol as internal standards). Plates were vortexed at 27 g for 10 min and then centrifuged at 3220 × g for 20 min at 4 °C. An aliquot of supernatant (75 μL) was transferred from each well and mixed with 75 μL of ultra-pure water before submitting to LC-MS/MS analysis. Concentrations of test and control compounds were quantified by LC-MS/MS using a peak area ratio of analyte/internal standard, and the percent loss of the parent compound was calculated at each time point to determine the half-life (t1/2, min). Experiments were performed in duplicate.

HDAC11 = target: T1, HDAC11 (Homo sapiens, UniProt Q96DB2); assay: HDAC11 Eurofins assay; format: biochemical
T1 sequence (Q96DB2 1-347): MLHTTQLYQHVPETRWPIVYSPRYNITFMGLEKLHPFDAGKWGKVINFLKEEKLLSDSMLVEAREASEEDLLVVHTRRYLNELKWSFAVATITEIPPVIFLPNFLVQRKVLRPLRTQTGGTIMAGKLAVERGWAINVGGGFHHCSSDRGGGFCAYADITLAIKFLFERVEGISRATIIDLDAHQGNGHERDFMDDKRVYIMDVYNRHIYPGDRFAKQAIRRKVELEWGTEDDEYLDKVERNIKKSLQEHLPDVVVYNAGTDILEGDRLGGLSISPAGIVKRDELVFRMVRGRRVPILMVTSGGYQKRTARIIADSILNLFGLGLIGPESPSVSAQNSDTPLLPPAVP

HDAC4 = target: T2, HDAC4 (Homo sapiens, UniProt P56524); assay: HDAC assay (Eurofins); format: biochemical
T2 construct: purchased Eurofins (contracted assay service)

MV4-11 = assay: q-RT-PCR of MYC, CDKN2A, CDKN1A, GATA2, TAL1, CEBPA, SPI1; format: cell-based, human; settings: for q-PCR of CEBPA, log10 (2-ΔΔCt) / q-PCR of GATA2, log10 (2-ΔΔCt) / q-PCR of MYC, log10 (2-ΔΔCt) / q-PCR of SPI1, log10 (2-ΔΔCt) / q-PCR of TAL1, log10 (2-ΔΔCt): MV4-11, daily treatment for 48 h, replicates 1-3; for CDKN1A log10 (2-ΔΔCt) / CDKN2A log10 (2-ΔΔCt) / CEBPA log10 (2-ΔΔCt) / MYC log10 (2-ΔΔCt) / SPI1 log10 (2-ΔΔCt) / TAL1 log10 (2-ΔΔCt): MV4-11, q-PCR
[2] = Pharmacokinetic study in plasma samples; format: in vivo, mouse; settings: 10 mg/kg i.p.; for CL/F: read-out: Norm. Cl/F (converted)
Procedure: Compounds CM-444 and CM-1758 were measured in plasma using an Acquity UPLC system (Waters, Manchester, UK) coupled to an Xevo-TQ MS triple-quadrupole mass spectrometer with ESI source.
Compound solutions were prepared by dissolving the solid in dimethyl sulfoxide (DMSO) and this solution was made up to a final volume by the addition of a mixture of Tween 20 and 0.9% NaCl (1/1/8, v-v:v, DMSO/Tween 20/saline). For the pharmacokinetic experiments, a drug dosage of 10 mg/kg was administered as a single intraperitoneal injection to RAG-2 mice. Blood was collected at predetermined post-injection times (15 min, and 1, 2, 4, 8 and 24 h) into EDTA-containing tubes, and plasma was obtained via centrifugation (4 °C, 657 g, 5 min) and stored at −80 °C until analysis.
Chromatographic separation was performed by gradient elution at 0.6 mL/min using an Acquity UPLC BEH C18 column (50 × 2.1 mm, 1.7 µm; Waters). The mobile phase consisted of A: water with 0.1% formic acid, B: methanol with 0.1% formic acid. The autosampler temperature was set at 10 °C and the column temperature at 40 °C. For detection and quantification, the ESI operated in the positive mode was set up for multiple reaction monitoring. The collision gas used was ultra-pure argon at a flow rate of 0.15 mL/min.
Quantification was achieved by external calibration using matrix-matched standards. Concentrations were calculated using a weighted least-squares linear regression (W = 1/x). Calibration standards were prepared by adding the appropriate volume of diluted compound solution (made in a mixture of methanol and water, 50:50, v-v) to aliquots of 20 µL of blank plasma. The calibration standard and sample preparation were as follows: 3% formic acid in methanol was added to precipitate the proteins. The mixture was then vortex-agitated for 1 min and centrifuged at 16,522 g for 10 min at 4 °C. A 5-µL aliquot of the supernatant solution was injected into the LC-MS/MS system for analysis. Frozen plasma samples were thawed at room temperature, vortex mixed thoroughly and subjected to the above-described extraction procedure.
The pharmacokinetic parameters were obtained by fitting the blood concentration-time data to a non-compartmental model with WinNonlin software (Pharsight, Mountain View, CA).

[3] = cryopreserved hepatocytes, Human
[4] = male, C57, cryopreserved hepatocytes, Mouse
[5] = RAG-2, mouse, plasma, intraperitoneal, read-out: plasmatic concentration, Mean
[6] = RAG-2, mouse, plasma, ip, mice, NCA
[7] = RAG-2, mouse, plasma, ip, mice, NCA, read-out: Norm. Vz/F

T2 sequence (P56524 whole entry): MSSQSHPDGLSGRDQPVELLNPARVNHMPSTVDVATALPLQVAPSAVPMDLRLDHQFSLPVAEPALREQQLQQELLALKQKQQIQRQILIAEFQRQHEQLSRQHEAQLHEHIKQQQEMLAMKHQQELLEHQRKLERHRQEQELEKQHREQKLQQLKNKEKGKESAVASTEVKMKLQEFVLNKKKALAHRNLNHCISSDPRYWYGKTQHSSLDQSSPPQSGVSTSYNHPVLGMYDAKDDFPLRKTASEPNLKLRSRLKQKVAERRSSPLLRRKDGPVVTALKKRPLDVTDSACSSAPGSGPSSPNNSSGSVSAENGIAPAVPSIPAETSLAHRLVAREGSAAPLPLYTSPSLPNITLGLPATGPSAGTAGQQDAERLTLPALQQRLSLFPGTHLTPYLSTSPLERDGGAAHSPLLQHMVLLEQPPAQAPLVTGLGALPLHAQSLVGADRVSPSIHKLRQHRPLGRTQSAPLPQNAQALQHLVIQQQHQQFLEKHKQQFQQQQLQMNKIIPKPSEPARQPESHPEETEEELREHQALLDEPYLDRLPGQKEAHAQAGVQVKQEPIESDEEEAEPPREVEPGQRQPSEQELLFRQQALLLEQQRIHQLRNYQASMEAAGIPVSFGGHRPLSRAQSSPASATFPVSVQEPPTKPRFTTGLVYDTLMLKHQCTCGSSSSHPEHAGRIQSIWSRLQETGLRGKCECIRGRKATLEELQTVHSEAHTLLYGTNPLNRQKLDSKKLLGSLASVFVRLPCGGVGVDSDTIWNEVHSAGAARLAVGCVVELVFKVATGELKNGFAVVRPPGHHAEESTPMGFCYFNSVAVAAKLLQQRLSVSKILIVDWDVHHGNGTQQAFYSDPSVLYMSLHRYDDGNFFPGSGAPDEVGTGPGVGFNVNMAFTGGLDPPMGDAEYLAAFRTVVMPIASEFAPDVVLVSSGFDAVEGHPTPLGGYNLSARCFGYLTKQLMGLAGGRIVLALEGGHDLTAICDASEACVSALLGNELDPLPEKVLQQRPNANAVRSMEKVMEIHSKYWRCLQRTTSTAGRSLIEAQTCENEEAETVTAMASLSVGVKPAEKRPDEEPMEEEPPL

## COc1cc2nc(-c3ccc(C)o3)cc(NCC3CCN(c4ncc(C(=O)NO)cn4)CC3)c2cc1OC [CM-444, 2-[4-[[[6,7-dimethoxy-2-(5-methyl-2-furyl)-4-quinolyl]amino]methyl]-1-piperidyl]pyrimidine-5-carbohydroxamic acid]
[1]; [3]
  half-life at 1 µM: 1.18 h
[1]; [4]
  half-life at 1 µM: 0.38 h
HDAC11
  IC50: 140 nM
HDAC4
  IC50: 62 nM
  inhibition at 10 µM: 96%
MV4-11
  q-PCR of CEBPA, log10 (2-ΔΔCt): 1.345 and 1.361 and 1.2654
  q-PCR of GATA2, log10 (2-ΔΔCt): 2.051 and 2.02 and 2.0001
  q-PCR of MYC, log10 (2-ΔΔCt): -0.5124 and -0.645 and -0.6461
  q-PCR of SPI1, log10 (2-ΔΔCt): 0.5839 and 0.521 and 0.5293
  q-PCR of TAL1, log10 (2-ΔΔCt): 0.7218 and 0.3689 and 0.9897
  CDKN1A log10 (2-ΔΔCt): 0.9858 and 0.7237 and 0.8689
  CDKN2A log10 (2-ΔΔCt): 1.137 and 1.036 and 1.001
  CEBPA log10 (2-ΔΔCt): 1.693 and 1.502 and 1.597
  MYC log10 (2-ΔΔCt): -0.5932 and -0.4926 and -0.5131
  SPI1 log10 (2-ΔΔCt): 0.3258
  TAL1 log10 (2-ΔΔCt): 0.527 and 0.4921 and 0.4657
[2]; mice, NCA, mean
  AUClast: 0.91615 µM·h
  Cl/F: 0.53 L/h
  Vz/F: 6.56 L
  t½: 8.46 h
[2]; [5]
  concentration at 0.25 h: 916 nM
  concentration at 1 h: 203 nM
  concentration at 2 h: 27.7 nM
  concentration at 4 h: 5 nM
  concentration at 8 h: 2.4 nM
[2]; RAG-2, mouse, plasma, intraperitoneal, 24 h, read-out: plasmatic concentration, Mean
  concentration at 24 h: 0.9 nM
[2]; [6]
  CL/F: 355 mL/min/kg
[2]; [7]
  Vd/F: 262 L/kg
[2]; mice
  clearance: 0.53 lh^−1

## COc1cc2nc(-c3cc(C)oc3C)cc(NCC3CCN(c4ncc(C(=O)NO)cn4)CC3)c2cc1OC [CM-1758, 2-[4-[[[2-(2,5-dimethyl-3-furyl)-6,7-dimethoxy-4-quinolyl]amino]methyl] -1-piperidyl]pyrimidine-5-carbohydroxamic acid]
[1]; [3]
  half-life at 1 µM: 1.53 h
[1]; [4]
  half-life at 1 µM: 0.325 h
HDAC11
  IC50: 150 nM
HDAC4
  IC50: 130 nM
  inhibition at 10 µM: 97%
MV4-11
  q-PCR of CEBPA, log10 (2-ΔΔCt): 1.278 and 1.212 and 1.279
  q-PCR of GATA2, log10 (2-ΔΔCt): 2.088 and 2.042 and 2.015
  q-PCR of MYC, log10 (2-ΔΔCt): -0.6051 and -0.8193 and -0.727
  q-PCR of SPI1, log10 (2-ΔΔCt): 0.513 and 0.595 and 0.5328
  q-PCR of TAL1, log10 (2-ΔΔCt): 0.8637 and 0.6983 and 1.049
  CDKN1A log10 (2-ΔΔCt): 0.6259 and 0.6326 and 0.6646
  CDKN2A log10 (2-ΔΔCt): 0.8926 and 0.6026 and 0.7418
  CEBPA log10 (2-ΔΔCt): 1.982 and 1.782 and 1.913
  MYC log10 (2-ΔΔCt): -0.7926 and -0.6522 and -0.726
  SPI1 log10 (2-ΔΔCt): 0.2626 and 0.2252 and 0.159
  TAL1 log10 (2-ΔΔCt): 0.5124 and 0.5 and 0.5901
[2]; 24 h
  plasmatic concentration, Mean: BLOQ
[2]; mice, NCA, mean
  Cl/F: 0.26 L/h
[2]; [5]
  concentration at 0.25 h: 1700 nM
  concentration at 1 h: 352 nM
  concentration at 2 h: 77.5 nM
  concentration at 4 h: 17.1 nM
  concentration at 8 h: 4.3 nM
[2]; RAG-2, mouse, plasma, ip, mice, NCA, mean
  AUC(0-t): 1.69 µM·h
[2]; RAG-2, mouse, plasma, ip, mice, NCA, mean, read-out: Vz/F
  Vd/F: 0.72 L
[2]; RAG-2, mouse, plasma, ip, mice, NCA, mean, read-out: t½ (converted)
  half-life: 1.95 h
[2]; [6]
  CL/F: 173 mL/min/kg
[2]; [7]
  Vd/F: 28.6 L/kg
[2]; mice
  clearance: 0.26 lh^−1
